Measurements as given in ChEMBL document CHEMBL1201862, “PubChem BioAssay data set” (2004).
Active and inactive are the calls of the source.

Key:
Beta-lactamase [1] = molecular target: T1, Beta-lactamase (Pseudomonas aeruginosa, UniProt Q79MP6); assay: […] counterscreen for selective VIM-2 inhibitors: dose response biochemical high throughput screening assay to identify inhibitors of IMP-1 metallo-beta-lactamase.
Beta-lactamase [2] = molecular target: Beta-lactamase (Salmonella choleraesuis (strain SC-B67), UniProt Q5J463); assay: Epi-absorbance-based counterscreen for selective VIM-2 inhibitors: dose response biochemical high throughput screening assay to identify inhibitors of TEM-1 serine-beta-lactamase.
Beta-lactamase [3] = molecular target: T1, Beta-lactamase; assay: IMP-1 metallo-beta-lactamase inhibitors, dose response, selectivity assay for VIM-2 inhibitor project, biochemical, epi-absorbance (AID 1920)
cells [4] = type: functional, cell-based
[5] = molecular target: T2, Trace amine-associated receptor 1 (Homo sapiens, UniProt Q96RJ0); assay: Fluorescence-based cell-based high throughput dose response assay to identify agonists of the human trace amine associated receptor 1 (TAAR1).; type: functional
T2 sequence (Q96RJ0 whole entry): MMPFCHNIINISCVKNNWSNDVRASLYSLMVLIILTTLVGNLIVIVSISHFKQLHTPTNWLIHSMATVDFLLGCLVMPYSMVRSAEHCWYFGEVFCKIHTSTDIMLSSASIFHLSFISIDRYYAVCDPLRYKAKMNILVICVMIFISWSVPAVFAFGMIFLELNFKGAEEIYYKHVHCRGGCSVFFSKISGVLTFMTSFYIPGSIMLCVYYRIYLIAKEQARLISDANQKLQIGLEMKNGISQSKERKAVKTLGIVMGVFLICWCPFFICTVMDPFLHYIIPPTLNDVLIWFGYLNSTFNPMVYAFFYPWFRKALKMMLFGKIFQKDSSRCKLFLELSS

cells [6] = type: functional, cell-based; remark: listed apart in the source
[7] = molecular target: T2, Trace amine-associated receptor 1; assay: Counterscreen for agonists of the human trace amine associated receptor 1 (hTAAR1): Fluorescence-based cell-based high throughput dose response assay to identify hTAAR1 agonist that also desensitize TAAR1 receptor response.; type: functional
[8] = molecular target: T3, Methionyl-tRNA synthetase, putative (Trypanosoma brucei brucei, UniProt Q38C91); type: functional, Trypanosoma brucei brucei strain 927/4 GUTat10.1
T3 sequence (Q38C91 whole entry): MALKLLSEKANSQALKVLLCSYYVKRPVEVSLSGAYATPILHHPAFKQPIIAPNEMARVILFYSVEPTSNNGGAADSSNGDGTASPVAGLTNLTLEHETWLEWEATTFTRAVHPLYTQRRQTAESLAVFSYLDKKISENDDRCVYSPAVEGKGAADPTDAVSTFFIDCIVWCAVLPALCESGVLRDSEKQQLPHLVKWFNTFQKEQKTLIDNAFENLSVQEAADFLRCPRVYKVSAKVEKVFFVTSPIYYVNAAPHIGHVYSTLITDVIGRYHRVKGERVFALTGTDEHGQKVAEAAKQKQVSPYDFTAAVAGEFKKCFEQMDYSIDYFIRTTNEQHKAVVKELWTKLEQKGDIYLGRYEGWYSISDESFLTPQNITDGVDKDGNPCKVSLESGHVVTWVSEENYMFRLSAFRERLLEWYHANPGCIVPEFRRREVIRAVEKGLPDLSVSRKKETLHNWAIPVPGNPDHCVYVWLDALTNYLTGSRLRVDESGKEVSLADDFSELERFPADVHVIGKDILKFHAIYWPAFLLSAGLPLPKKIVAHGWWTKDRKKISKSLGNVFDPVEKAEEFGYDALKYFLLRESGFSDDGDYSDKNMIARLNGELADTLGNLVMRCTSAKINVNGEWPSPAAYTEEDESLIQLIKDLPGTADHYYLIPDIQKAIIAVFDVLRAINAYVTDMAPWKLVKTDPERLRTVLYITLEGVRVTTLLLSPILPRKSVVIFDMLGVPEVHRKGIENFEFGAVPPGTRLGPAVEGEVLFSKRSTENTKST

[9] = Counterscreen for inhibitors of Trypanosoma brucei methionyl tRNA synthetase (MetRS): Luminescence-based cell-based high throughput dose response assay to identify compounds that are cytotoxic to Jurkat human T lymphocyte cells.; type: functional
[10] = molecular target: T3, Methionyl-tRNA synthetase, putative; type: functional, Trypanosoma brucei brucei strain 927/4 GUTat10.1; remark: listed apart in the source
[11] = LMP1-driven NF-kB reporter inhibition, dose response, cell-based, luciferase reporter, luminescence, dry powder, set 2 (AID 624376); type: functional
[12] = Luminescence Cell-Based Dose Response HTS to Identify Activators of Luciferase Translation or Activity in H4 […] Cells. [Related pubchem assays: 1829 (Project Summary), 1814 (Primary HTS)]; type: functional
H4 = assay: Luminescence Cell-Based Dose Response HTS to Identify Activators of 5'UTR Stem-Loop Driven Prion Protein mRNA Translation in H4 Neuroglioblastoma Cells. [Related pubchem assays: 1829 (Project Summary), 1814 (Primary HTS)]; type: functional; conditions: Homo sapiens
[13] = Luminescence Cell-Based Dose Confirmation HTS to Identify Activators of 5'UTR Stem-Loop Driven Alpha-Synuclein mRNA Translation in H4 Neuroglioblastoma Cells. [Related pubchem assays: 1829 (Project Summary), 1814 (Primary HTS)]; type: functional
[14] = molecular target: T4, RNA-binding protein pos-1 (Caenorhabditis elegans, UniProt G5EF15); assay: inhibitors of POS-1/mex-3 RNA binding, dose response, biochemical, fluorescence polarization (AID 1964);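 further: purified POS-1 fused to maltose binding protein made in E. coli; potency of compounds blocking POS-1 binding to fluorescent RNA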
T4 sequence (G5EF15 whole entry): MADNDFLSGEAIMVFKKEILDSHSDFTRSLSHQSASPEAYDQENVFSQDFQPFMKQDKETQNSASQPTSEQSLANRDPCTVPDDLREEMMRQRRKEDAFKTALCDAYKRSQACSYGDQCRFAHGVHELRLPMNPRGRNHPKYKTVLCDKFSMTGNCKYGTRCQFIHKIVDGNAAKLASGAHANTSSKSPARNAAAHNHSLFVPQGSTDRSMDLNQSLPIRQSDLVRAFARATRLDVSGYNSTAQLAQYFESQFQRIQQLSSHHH

[15] = molecular target: T5, Zinc finger protein mex-5 (Caenorhabditis elegans, UniProt Q9XUB2); assay: MEX-5/TCR-2 RNA interaction inhibitors, dose response, biochemical, C. elegans, fluorescence polarization (AID 1960)
T5 sequence (Q9XUB2 whole entry): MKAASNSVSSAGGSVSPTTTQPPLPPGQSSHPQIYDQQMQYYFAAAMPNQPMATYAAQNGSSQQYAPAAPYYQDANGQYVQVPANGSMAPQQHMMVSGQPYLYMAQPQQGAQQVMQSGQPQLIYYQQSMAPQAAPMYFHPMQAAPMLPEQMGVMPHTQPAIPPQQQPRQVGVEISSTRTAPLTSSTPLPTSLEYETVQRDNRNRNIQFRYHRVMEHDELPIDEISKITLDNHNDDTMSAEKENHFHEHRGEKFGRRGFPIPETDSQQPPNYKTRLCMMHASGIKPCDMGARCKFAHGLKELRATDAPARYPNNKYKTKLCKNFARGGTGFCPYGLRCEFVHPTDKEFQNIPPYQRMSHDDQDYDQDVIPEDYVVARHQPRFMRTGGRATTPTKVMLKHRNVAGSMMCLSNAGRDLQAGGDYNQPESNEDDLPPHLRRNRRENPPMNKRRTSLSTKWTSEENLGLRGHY

[16] = molecular target: T6, Sentrin-specific protease 1 (Homo sapiens, UniProt Q9P0U3); assay: potency of human SENP1 inhibitors, dose response, biochemical, kinetic FRET (AID 651697); type: functional; conditions: read-out: IC50_Mean
T6 sequence (Q9P0U3 whole entry): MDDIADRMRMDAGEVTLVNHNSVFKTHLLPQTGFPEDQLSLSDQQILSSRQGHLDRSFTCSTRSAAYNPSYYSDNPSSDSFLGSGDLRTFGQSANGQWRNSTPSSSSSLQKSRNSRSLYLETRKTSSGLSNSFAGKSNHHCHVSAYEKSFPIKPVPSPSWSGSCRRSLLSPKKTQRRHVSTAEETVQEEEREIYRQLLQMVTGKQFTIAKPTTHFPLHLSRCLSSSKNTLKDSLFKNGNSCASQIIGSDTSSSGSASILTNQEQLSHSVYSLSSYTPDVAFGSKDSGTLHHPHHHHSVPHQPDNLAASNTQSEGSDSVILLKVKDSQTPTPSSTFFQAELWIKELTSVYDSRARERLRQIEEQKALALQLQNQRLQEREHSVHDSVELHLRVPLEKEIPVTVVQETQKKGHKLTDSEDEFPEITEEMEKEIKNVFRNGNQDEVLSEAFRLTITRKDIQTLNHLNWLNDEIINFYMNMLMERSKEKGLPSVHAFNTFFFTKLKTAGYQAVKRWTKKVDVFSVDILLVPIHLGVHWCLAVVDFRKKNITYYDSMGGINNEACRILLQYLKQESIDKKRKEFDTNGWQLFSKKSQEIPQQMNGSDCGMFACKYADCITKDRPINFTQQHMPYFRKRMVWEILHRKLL

[17] = molecular target: T7, Corticotropin-releasing factor receptor 2/Corticotropin-releasing factor-binding protein (Homo sapiens, UniProt P24387+Q13324); assay: activators of CRF receptor 2 with binding protein – uHTS hits, confirmation (AID 602473); type: functional; conditions: read-out: EC50_Mean
T7 sequence (Q13324 whole entry): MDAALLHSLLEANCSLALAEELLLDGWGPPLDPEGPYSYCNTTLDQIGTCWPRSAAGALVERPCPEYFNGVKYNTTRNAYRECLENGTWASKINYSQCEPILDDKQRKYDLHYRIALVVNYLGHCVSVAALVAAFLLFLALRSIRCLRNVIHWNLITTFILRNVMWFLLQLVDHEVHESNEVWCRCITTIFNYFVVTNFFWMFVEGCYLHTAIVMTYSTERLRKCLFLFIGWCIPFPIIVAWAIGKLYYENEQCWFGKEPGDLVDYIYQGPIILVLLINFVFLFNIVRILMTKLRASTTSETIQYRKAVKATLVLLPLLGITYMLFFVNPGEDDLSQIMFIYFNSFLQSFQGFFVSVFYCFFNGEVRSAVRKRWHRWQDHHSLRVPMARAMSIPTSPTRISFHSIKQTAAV
T7 sequence (P24387 whole entry): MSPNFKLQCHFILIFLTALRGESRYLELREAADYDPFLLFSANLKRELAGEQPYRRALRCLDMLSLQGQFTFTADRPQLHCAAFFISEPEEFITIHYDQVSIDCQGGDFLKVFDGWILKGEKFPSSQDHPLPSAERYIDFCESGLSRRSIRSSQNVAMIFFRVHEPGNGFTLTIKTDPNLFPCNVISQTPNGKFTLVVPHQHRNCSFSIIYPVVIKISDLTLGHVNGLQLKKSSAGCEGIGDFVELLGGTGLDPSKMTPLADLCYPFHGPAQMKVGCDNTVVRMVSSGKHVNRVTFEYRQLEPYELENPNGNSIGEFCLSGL

cells [18] = assay: cells
[19] = molecular target: T7, Corticotropin-releasing factor receptor 2/Corticotropin-releasing factor-binding protein; assay: Dose Response confirmation of uHTS hits for small molecule antagonists of the CRF-binding protein and CRF-R2 receptor complex.; type: functional; conditions: read-out: IC50_Mean
Major prion protein = Major prion protein (Homo sapiens, UniProt P04156); type: functional, cell-based
[20] = HEK293 cell cytotoxicity, dose response, cytotoxicity control, cherry-picks, set 5 (AID 1053117); type: functional, cell-based
[21] = molecular target: Arf-GAP with SH3 domain, ANK repeat and PH domain-containing protein 1 (Homo sapiens, UniProt Q9ULH1); type: functional;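 further: biochemical fluorescence polarization dose–response screen measuring inhibition of ASAP1; ASAP1 GAP domain stimulating GTP hydrolysis by truncated human ARF1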

For `O=C(CSc1nnc(NC(=O)c2c(F)cccc2F)s1)NCc1ccccc1`, the IC50 (Beta-lactamase [1]) was > 59.6 µM (inactive), the IC50 (Beta-lactamase [2]) was > 59.6 µM (inactive) and the IC50 (Beta-lactamase [3]) was > 59.6 µM (inactive).
In the case of `O=C(O)C1C2C=CC(C2)C1C(=O)NCCc1ccccc1` (stereo unspecified), the EC50 (cells [4]) is reported as > 29.9 µM (inactive), the EC50 [5] is reported as 0.14 µM (active) and the IC50 (cells [6]) is reported as > 29.9 µM (inactive). The IC50 [7] was 5.26 µM (active).
With `Cc1ccc(NC(=O)C(C)c2cccc(C(=O)c3ccccc3)c2)cc1` (stereo unspecified) the IC50 [8] was 3.15 µM (active), the IC50 [9] was 83.3 µM (inactive) and the IC50 [10] was 7.61 µM (active).
Work on `Cc1noc(C)c1S(=O)(=O)Nc1ccc2c(c1)C(=O)N([C@@H](C)CO)C[C@@H](C)[C@H](CN(C)Cc1ccc(C(F)(F)F)cc1)OCCCC[C@@H](C)O2` yielded an AbsAC35 [11] of 151.1 µM.
For `O=C(N[C@@H](Cc1cccnc1)C(=O)N1CCC[C@H]1C(=O)NCCc1ccccc1Cl)c1ccccc1`, the EC50 (cells [4]) was > 29.9 µM (inactive), the EC50 [5] was 4.3 µM (active) and the IC50 (cells [6]) was > 29.9 µM (inactive). The IC50 [7] was 5.16 µM (active).
With `COc1ccc(P2(=O)Nc3ccccc3N2)cc1` the EC50 [12] was 10.5 µM (active), the EC50 (H4) was 7.44 µM (active) and the EC50 [13] was > 120 µM (not active). For the same compound, the EC50 [14] was > 300 µM (not active), the EC50 [15] was 103 µM (active) and the IC50 [16] was 74.3 µM (inactive).
With `COc1ccc2c(C)cc(SCc3c(C)noc3C)nc2c1` the EC50 [17] was > 53 µM (inactive), the IC50 (cells [18]) was > 138 µM (inactive) and the IC50 [19] was > 47.1 µM (inactive). The IC50 (Major prion protein) was 4.31 µM (active).
Work on `C[C@H]1CN([C@@H](C)CO)C(=O)c2c(c3ccccc3n2C)-c2ccccc2CO[C@@H]1CN(C)C(=O)Nc1ccc(F)cc1` yielded an AbsAC35 [11] of 78.41 µM.
For `C[C@H]1CN([C@@H](C)CO)C(=O)c2cc(-c3ccccc3)cnc2O[C@H]1CN(C)C(=O)c1cccc(F)c1`, the AC50 [20] was > 52 µM (inactive).
With `CC1CCCN(C(=O)CSc2cnc3ccccc3n2)C1` (stereo unspecified) the EC50 [12] was 5.25 µM (active), the EC50 (H4) was 11 µM (active) and the IC50 (cells [18]) was > 138 µM (inactive). For the same compound, the IC50 (Major prion protein) was 5.87 µM (active).
With `OC(c1cc(F)cc(Cl)c1)c1nc(-c2cccc(C(F)(F)F)c2)c[nH]1` (stereo unspecified) the IC50 [8] was 17.5 µM (inactive), the IC50 [9] was 42.2 µM (inactive) and the IC50 [10] was 27.7 µM (inactive).
In the case of `Cc1ccc(/C=N/NC(=O)CCCOc2ccc(Cl)cc2Cl)cc1[N+](=O)[O-]`, the IC50 [21] is reported as 26.1 µM (inactive).
With `COc1ccc(/C=C2\C(=O)NC(=O)c3ccccc32)cc1OC` the IC50 [21] was 165 µM (inactive).
